# Measured values as given in patent EP0187057A1, “2-Phenyl-isopropyl-allophanate, preparation and pharmaceutical application” (priority 1984, dated 1986).
# Values joined by “and” are separate entries in the source; they are usually repeats but may differ in a detail not shown here. Equal entries are not always repeated. Where two headings read alike, the source gives them in different places.
# Assays:
# crises pentétrazoliques = test: Convulsant and lethal effects of subcutaneous pentetrazol (125 mg/kg); type: in vivo, souris
# Source text: (§1) Propriétés anticonvulsivantes : • On a effectué, pour déterminer ces propriétés anticonvulsivantes, des expérimentations sur le SCS 289 en procédant à des essais de protection : • - chez le lapin soumis à une transélectrification cranienne génératrice de crises épileptiformes de type "grand mal" ou recevant une infusion veineuse de pentétrazol provoquant l'apparition de myoclonies palpébrales; • - chez la souris recevant, par voie sous-cutanée des doses croissantes de pentétrazol entraînant convulsions et mort ou soumise à une transélectrification transcranienne à basse fréquence génératrice de crises psychomotrices.
# Pour déceler une synergie d'action antagoniste vis-à-vis des effets convulsivants et létaux du pentétrazol injecté par voie sous-cutanée chez la souris à la dose de 125 mg/kg, on a déterminé avec plus de précision la DE50 du SCS 289 et on a recherché si l'association avec le SCS 35 apportait un surcroit appréciable d'activité.
# On n'a retenu comme significative que la protection à l'égard des effets létaux observés sur 24 heures.
# [1] = tested on: crises épileptiformes consécutives à l'électrochoc; test: Maximal electroshock producing epileptiform 'grand mal' seizures (1st and 2nd electroshock); type: in vivo, lapin
# Source text: as §1
# Ne considérant comme significative, que la protection complète, les traitements pratiqués une heure avant le second électrochoc ont conféré les protection suivantes (sur groupes de dix lapins) :
# Si, par ailleurs, on considère la protection contre les crises toniques (hyperextension des pattes postérieures), il apparaît également une synergie particulièrement aux doses associées de 200 mg/kg de produits.
# [2] = Acute toxicity by the digestive route, lethality after one week of observation; type: in vivo, souris; conditions: mouse, in vivo, po; for mortality at 168 h: read-out: Pourcentage de létalité Souris
# Method: (§2) Des doses croissantes de produit (SCS 289) ont été administrées, par voie digestive, sous forme de suspensions gommeuses, sous le volume de 0,50 ml/20 g de poids corporel chez la souris et 0,50 ml/100 g de poids corporel chez le rat (de 500 à 4000 mg/kg avec des intervalles de 500 mg/kg).
# (§3) Les animaux ont été maintenus en observation pendant une semaine, tout d'abord dans le laboratoire (avec un chauffage d'appoint) jusqu'au réveil des animaux endormis, puis dans l'unité animale conditionnée et climatisée.
# (§4) Le taux de mortalité relevé dans chaque lot de rats et de souris au terme de la semaine d'observation a été le suivant :
# (§5) Les valeurs des DL50, calculées par la méthode de Miller et Tainter sont respectivement de : • - 2300 ± 102 m^g/k^g chez la souris; • - 2050 + 220 mg/kg chez le rat.
# souris = test: as above; type: in vivo; conditions: souris, voie digestive, méthode de Miller et Tainter; 10080 min
# Method: as §2, §3, §4, §5
# [3] = tested on: myoclonies palpébrales provoquées par l'infusion veineuse de pentétrazol; test: Intravenous pentetrazol infusion producing palpebral myoclonus (threshold seizures); type: in vivo, lapin; conditions: for Dose moyenne de pentétrazol: controls 23,0; for Quantité de pentétrazol nécessaire à l'apparition des myoclonies palpébrales / Temps d'infusion veineuse nécessaire à l'apparition des myoclonies palpébrales: individual animals; for Temps d'infusion veineuse nécessaire à l'apparition des myoclonies palpébrales: comma separates minutes and seconds
# Source text: as §1
# Les résultats quant à la protection contre les crises pentétrazoliques liminaires génératrices de myaclonies palpébrales figurent dans les tableaux ci-après.
# L'administration préalable de SCS 289 retarde l'apparition des myoclonies palpébrales provoquées par l'infusion veineuse de pentétrazol.
# Une expérimentation similaire pratiquée en essais croisés a donné les résultats suivants pour divers anticonvulsivants de référence : […]
# crises psychomotrices = test: Psychomotor seizures induced by low-frequency transcranial electrical stimulation; type: in vivo, souris; conditions: for Pourcentage de souris protégées une heure après traitement: groupes de 20 souris
# Source text: as §1
# On a également recherché si le SCS 289 était susceptible de protéger la souris contre le choc psychomoteur induit par une stimulation transcranienne à basse fréquence qui provoque, chez l'animal, un bref comportement de désorientation rappelant les attaques psychomotrices de l'homme.
# Vis-à-vis des crises psychomotrices provoquées chez la souris par une stimulation électrique transcranienne à basse fréquence, le SCS 35 apparait plus actif que le SCS 289 : […]
# [4] = index thérapeutique absolu, souris
# [5] = lapins ayant reçu 50 mg/kg de SCS 289
# [6] = lapins ayant reçu 100 mg/kg de SCS 289
smiles,measurement,setting,value
"CC(C)OC(=O)N(C(N)=O)c1ccccc1 [SCS 289, phényl-2 allophanate d'isopropyle]",% de protection vis-à-vis de la létalité pentétrazolique,crises pentétrazoliques; 10 mg/kg,20%
same,% de létalité en 24 h,"crises pentétrazoliques; 10 mg/kg 1 h avant pentétrazol 125 mg/kg s.c., untreated 100",80%
same,% de protection vis-à-vis de la létalité pentétrazolique,crises pentétrazoliques; 20 mg/kg,70%
same,% de létalité en 24 h,crises pentétrazoliques; 20 mg/kg 1 h avant pentétrazol,30%
same,% de protection vis-à-vis de la létalité pentétrazolique,crises pentétrazoliques; 30 mg/kg,100%
same,% de létalité en 24 h,crises pentétrazoliques; 30 mg/kg 1 h avant pentétrazol,0%
same,% de protection vis-à-vis de la létalité pentétrazolique,crises pentétrazoliques; 40 mg/kg,100%
same,% de létalité en 24 h,crises pentétrazoliques; 40 mg/kg 1 h avant pentétrazol,0%
same,% de protection vis-à-vis de la létalité pentétrazolique,crises pentétrazoliques; 50 mg/kg,100%
same,% de létalité en 24 h,crises pentétrazoliques; 50 mg/kg 1 h avant pentétrazol,0%
same,ED50,"crises pentétrazoliques; Mus musculus, sc, 24 h, souris, read-out: DE50 à l'égard des crises pentétrazoliques maximales et létales",15 mg/kg
same,DL50/DE50 /pentétrazol,crises pentétrazoliques; [4],153
same,% d'animaux protégés contre les seules crises toniques,"[1]; 100 mg/kg, hyperextension tonique des pattes postérieures",60%
same,% d'animaux protégés contre les seules crises toniques,[1]; 200 mg/kg,50%
same,protection contre la forme tonique des convulsions (animals out of ten),[1]; 200 mg/kg,cinq animaux sur dix
same,% d'animaux protégés complètement,"[1]; 200 mg/kg, one hour before second electroshock, groups of ten rabbits",20%
same,mortality at 168 h,[2]; 500 mg/kg voie digestive,0%
same,mortality at 168 h,[2]; 1000 mg/kg voie digestive,0%
same,mortality at 168 h,[2]; 1500 mg/kg voie digestive,0%
same,mortality at 168 h,[2]; 2000 mg/kg voie digestive,20%
same,mortality at 168 h,[2]; 2500 mg/kg voie digestive,40%
same,mortality at 168 h,[2]; 3000 mg/kg voie digestive,100%
same,mortality at 168 h,[2]; 3500 mg/kg voie digestive,100%
same,mortality at 168 h,[2]; 4000 mg/kg voie digestive,100%
same,LD50 at 168 h,"[2]; souris, voie digestive, méthode de Miller et Tainter, read-out: DL50",2300 ± 102 mg/kg
same,DL50,souris,2300 + 102 mg/kg
same,Elévation du seuil myoclonique,[3]; 50 mg/kg,"61,7%"
same,Dose moyenne de pentétrazol,[3]; 50 mg/kg,"37,2 mg/kg"
same,Elévation du seuil myoclonique,[3]; 100 mg/kg,113%
same,Dose moyenne de pentétrazol,[3]; 100 mg/kg,"49,2 mg/kg"
same,Quantité de pentétrazol nécessaire à l'apparition des myoclonies palpébrales,[3]; [5],"40,78 mg/kg and 42,58 mg/kg and 51,43 mg/kg and 33,33 mg/kg and 43,68 mg/kg and 32,44 mg/kg and 22,22 mg/kg and 40 mg/kg and 45,15 mg/kg and 20 mg/kg"
same,Temps d'infusion veineuse nécessaire à l'apparition des myoclonies palpébrales,[3]; [5],"26 minutes et secondes and 28 minutes et secondes (2×) and 36 minutes et secondes and 21,15 minutes et secondes and 31,40 minutes et secondes and 22,20 minutes et secondes and 15 minutes et secondes and 28,40 minutes et secondes and 16 minutes et secondes"
same,Quantité de pentétrazol nécessaire à l'apparition des myoclonies palpébrales,[3]; [6],"51,85 mg/kg and 51,81 mg/kg and 46,28 mg/kg and 64 mg/kg and > 68,44 mg/kg and 45,15 mg/kg and 56,67 mg/kg and 33,84 mg/kg and 37,71 mg/kg and 36,41 mg/kg"
same,Temps d'infusion veineuse nécessaire à l'apparition des myoclonies palpébrales,[3]; [6],"35 minutes et secondes and 37 minutes et secondes and 28 minutes et secondes and 32 minutes et secondes and > 45 minutes et secondes and 28,40 minutes et secondes and 34 minutes et secondes and 33 minutes et secondes (2×) and 35,30 minutes et secondes"
same,activité vis-à-vis des myoclonies palpébrales du lapin par rapport au valproate de sodium,"[3]; relative activity, lapin",dix fois plus actif
same,activité vis-à-vis des myoclonies palpébrales du lapin par rapport à la phénacétamide,"[3]; relative activity, lapin",deux fois plus actif
same,Pourcentage de souris protégées une heure après traitement,crises psychomotrices; 5 mg/kg voie digestive,45%
same,Pourcentage de souris protégées une heure après traitement,crises psychomotrices; 10 mg/kg voie digestive,50%
same,Pourcentage de souris protégées une heure après traitement,crises psychomotrices; 25 mg/kg voie digestive,95%
same,Pourcentage de souris protégées une heure après traitement,crises psychomotrices; 50 mg/kg voie digestive,100%
same,Pourcentage de souris protégées une heure après traitement,"crises psychomotrices; 2,5 mg/kg voie digestive",35%
same,ED50,"crises psychomotrices; Mus musculus, po, souris, voie digestive, read-out: DE50 capable de protéger 50 % des animaux contre les crises psychomotrices",4.5 mg/kg
same,activité par rapport au valproate de sodium (comparaison des DE50),"crises psychomotrices; crises psychomotrices, souris",26 fois
same,activité par rapport à la phénacétamide (comparaison des DE50),"crises psychomotrices; crises psychomotrices, souris",trois fois plus actif
same,DL50/DE50 / Crises psycho-motrices,crises psychomotrices; [4],511
same,DE50 psychodépressive / DE50 anticonvulsivante / Crises psycho-motrices,"crises psychomotrices; index thérapeutique relatif, psychodépressive = mean of DE50 for agilité, force musculaire, motricité, curiosité",16
same,DE50 capable de protéger 50 % des animaux contre les crises psychomotrices,"crises psychomotrices; souris, voie digestive","4,5 mg/kg and ~5,5 mg/kg"
